Results: patent US10765114B2, “4-amino-6-(pyridyl and 2-substitutedphenyl)-picolinates and 6-amino-2-(pyridyl and 2-substitutedphenyl)-pyrimidine-4-carboxylates and their use as herbicides” (Dow AgroSciences LLC, priority 2013, dated 2020)
Like-named read-outs stand apart in the source and are kept apart here.

Key:
[1] = test system: Key Grass and Sedge Weeds as well as Grass Crops; experiment: Post-Emergent Test II (Table 6); assay type: in vivo; conditions: post-emergence, 336 h, 14 days after application; for pest or weed control at 70 g/ha: 70 g ai/ha; for pest or weed control at 140 g/ha: 140 g ai/ha
Summary of the method: (§1)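 Post-emergence greenhouse spray, 1st-2nd true leaf stage; track sprayer, 187 L/ha; acetone/DMSO stock diluted in aqueous acetone/IPA/DMSO with Atplus 411F and Triton X-155; rates 1× to 1/16×; subirrigated; visual injury 0 (none) to 100% (complete kill) at 14 days.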

[2] = test system: Key Broadleaf Weed and Crop Species; experiment: Post-Emergent Test II (Table 5); assay type: in vivo; conditions: post-emergence, 336 h; for pest or weed control at 70 g/ha: application rate 70 (kg ai/ha; footnote: g ai/ha); for pest or weed control at 140 g/ha: application rate 140 (kg ai/ha; footnote: g ai/ha)
Summary of the method: as §1

[3] = CYPSS, read-out: Visual Growth Reduction (%) 14 Days After Application CYPSS
[4] = DIGSA: crabgrass (Digitaria sanguinalis), read-out: Visual Growth Reduction (%) 14 Days After Application DIGSA
[5] = ECHSS, read-out: Visual Growth Reduction (%) 14 Days After Application ECHSS
[6] = ORYSS (crop), read-out: Visual Growth Reduction (%) 14 Days After Application ORYSS
[7] = SETFA: giant foxtail (Setaria faberi), read-out: Visual Growth Reduction (%) 14 Days After Application SETFA
[8] = SORVU: grain sorghum (Sorghum vulgare), read-out: Visual Growth Reduction (%) 14 Days After Application SORVU
[9] = TRZSS (crop), read-out: Visual Growth Reduction (%) 14 Days After Application TRZSS
[10] = ZEAMX: maize, corn (Zea mays), read-out: Visual Growth Reduction (%) 14 Days After Application ZEAMX
[11] = Abutilon theophrasti, ABUTH: velvetleaf (Abutilon theophrasti), read-out: Visual Growth Reduction (%) 14 Days After Application ABUTH
[12] = Amaranthus retroflexus, AMARE: redroot pigweed (Amaranthus retroflexus), read-out: Visual Growth Reduction (%) 14 Days After Application AMARE
[13] = Brassica napus, BRSSS: oilseed rape, canola (Brassica napus), read-out: Visual Growth Reduction (%) 14 Days After Application BRSSS
[14] = Chenopodium album, CHEAL: lambsquarters (Chenopodium album), read-out: Visual Growth Reduction (%) 14 Days After Application CHEAL
[15] = Euphorbia heterophylla, EPHHL: wild poinsettia (Euphorbia heterophylla), read-out: Visual Growth Reduction (%) 14 Days After Application EPHHL
[16] = Helianthus annuus, HELAN: sunflower (Helianthus annuus), read-out: Visual Growth Reduction (%) 14 Days After Application HELAN
[17] = Viola tricolor, VIOTR: wild pansy (Viola tricolor), read-out: Visual Growth Reduction (%) 14 Days After Application VIOTR

Compound	pest or weed control at 70 g/ha [1, 3] [%]	pest or weed control at 140 g/ha [1, 3] [%]	pest or weed control at 70 g/ha [1, 4] [%]	pest or weed control at 140 g/ha [1, 4] [%]	pest or weed control at 70 g/ha [1, 5] [%]	pest or weed control at 140 g/ha [1, 5] [%]	pest or weed control at 70 g/ha [1, 6] [%]	pest or weed control at 140 g/ha [1, 6] [%]	pest or weed control at 70 g/ha [1, 7] [%]	pest or weed control at 140 g/ha [1, 7] [%]	pest or weed control at 70 g/ha [1, 8] [%]	pest or weed control at 140 g/ha [1, 8] [%]	pest or weed control at 70 g/ha [1, 9] [%]	pest or weed control at 140 g/ha [1, 9] [%]	pest or weed control at 70 g/ha [1, 10] [%]	pest or weed control at 140 g/ha [1, 10] [%]	pest or weed control at 70 g/ha [2, 11] [%]	pest or weed control at 140 g/ha [2, 11] [%]	pest or weed control at 70 g/ha [2, 12] [%]	pest or weed control at 140 g/ha [2, 12] [%]	other results
Nc1cc(-c2ccc(Cl)c(F)c2CF)nc(C(=O)O)c1Cl [Compound 80, 4-Amino-3-chloro-6-(4-chloro-3-fluoro-2-(fluoromethyl)phenyl)picolinic acid]	0 to 29	0 to 29	0 to 29	0 to 29	0 to 29	0 to 29	0 to 29	0 to 29	0 to 29	0 to 29	0 to 29	0 to 29	0 to 29	0 to 29	0 to 29	0 to 29	75 to 84	75 to 84	95 to 100	95 to 100	pest or weed control at 70 g/ha [2, 13]: 95 to 100%; pest or weed control at 140 g/ha [2, 13]: 95 to 100%; pest or weed control at 70 g/ha [2, 14]: 95 to 100%; pest or weed control at 140 g/ha [2, 14]: 95 to 100%; pest or weed control at 70 g/ha [2, 15]: 0 to 29%; pest or weed control at 140 g/ha [2, 15]: 0 to 29%; pest or weed control at 70 g/ha [2, 16]: 85 to 94%; pest or weed control at 140 g/ha [2, 16]: 85 to 94%; pest or weed control at 70 g/ha [2, 17]: 0 to 29%; pest or weed control at 140 g/ha [2, 17]: 0 to 29%
COC(=O)c1nc(-c2ccc(Cl)c(F)c2OC)c(F)c(N)c1Cl [Compound 39, methyl 4-amino-3-chloro-6-(4-chloro-3-fluoro-2-methoxyphenyl)-5-fluoropicolinate]	45 to 59	95 to 100	0 to 29	0 to 29	0 to 29	0 to 29	0 to 29	0 to 29	0 to 29	75 to 84	0 to 29	0 to 29	30 to 44	30 to 44	0 to 29	60 to 74	95 to 100	95 to 100	95 to 100	95 to 100	pest or weed control at 70 g/ha [2, 13]: 95 to 100%; pest or weed control at 140 g/ha [2, 13]: 95 to 100%; pest or weed control at 70 g/ha [2, 14]: 0 to 29%; pest or weed control at 140 g/ha [2, 14]: 0 to 29%; pest or weed control at 70 g/ha [2, 15]: 45 to 59%; pest or weed control at 140 g/ha [2, 15]: 45 to 59%; pest or weed control at 70 g/ha [2, 16]: 95 to 100%; pest or weed control at 140 g/ha [2, 16]: 95 to 100%; pest or weed control at 70 g/ha [2, 17]: 95 to 100%; pest or weed control at 140 g/ha [2, 17]: 95 to 100%
Nc1cc(-c2ccc(Cl)c(Cl)c2Cl)nc(C(=O)O)c1Cl [Compound 93]	0 to 29	0 to 29	60 to 74	60 to 74	30 to 44	30 to 44	0 to 29	0 to 29	0 to 29	0 to 29	0 to 29	0 to 29	45 to 59	60 to 74	30 to 44	30 to 44	85 to 94	85 to 94	95 to 100	95 to 100	pest or weed control at 70 g/ha [2, 13]: 95 to 100%; pest or weed control at 140 g/ha [2, 13]: 95 to 100%; pest or weed control at 70 g/ha [2, 14]: 85 to 94%; pest or weed control at 140 g/ha [2, 14]: 95 to 100%; pest or weed control at 70 g/ha [2, 15]: 95 to 100%; pest or weed control at 140 g/ha [2, 15]: 95 to 100%; pest or weed control at 70 g/ha [2, 16]: 60 to 74%; pest or weed control at 140 g/ha [2, 16]: 75 to 84%; pest or weed control at 70 g/ha [2, 17]: 60 to 74%; pest or weed control at 140 g/ha [2, 17]: 0 to 29%
